# Test results from US6057371A, “Sigma receptor ligands and the use thereof” (Virginia Commonwealth University, priority 1992, dated 2000).
# Values joined by “and” are separate entries in the source; they are usually repeats but may differ in a detail not shown here. Equal entries are not always repeated. Where two headings read alike, the source gives them in different places.
# Tests used:
# sigma-1 binding site = target: T1, sigma-1 binding site (Cavia porcellus, UniProt Q60492); assay: biochemical; set-up: species or system guinea pig
# T1 construct: Guinea pig whole membrane preparations (P2 microsomal fraction); from tissue; host or cells: guinea pig membranes (P2 microsomal fraction), as described by Weber et al; brain inferred from the sister test b489
# Protocol: [^3 H]DTG was purchased from DuPont/NEN.
# The radioactivity on the filters was determined by scintillation spectrometry at an efficiency of about 50% using Cytoscint (ICN) scintillation fluid.
# 5-HT1A receptor = target: T2, 5-HT1A receptor (Rattus norvegicus, UniProt P19327); assay: biochemical; type: binding; set-up: 47: 529-540 (1986); from tissue; host or cells: brain tissue, inferred from the cited method (rat frontal cortex)
# T2 sequence (P19327 1-422): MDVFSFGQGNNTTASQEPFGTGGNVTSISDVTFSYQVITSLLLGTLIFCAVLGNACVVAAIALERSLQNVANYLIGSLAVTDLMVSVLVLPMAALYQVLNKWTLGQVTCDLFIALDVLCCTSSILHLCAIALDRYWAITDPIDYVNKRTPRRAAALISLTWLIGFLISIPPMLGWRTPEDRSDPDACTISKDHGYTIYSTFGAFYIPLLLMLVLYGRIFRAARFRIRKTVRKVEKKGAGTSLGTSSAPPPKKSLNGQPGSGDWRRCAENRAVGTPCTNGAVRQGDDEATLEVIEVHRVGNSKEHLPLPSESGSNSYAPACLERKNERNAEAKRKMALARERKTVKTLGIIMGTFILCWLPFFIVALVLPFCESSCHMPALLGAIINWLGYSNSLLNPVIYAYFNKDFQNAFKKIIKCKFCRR
# Protocol: Further sigma receptor binding assays against [^3 H]DTG and 5HT-1A binding assays were conducted according to the procedure outlined in the previous examples.
# PCP receptor = PCP receptor binding, ^3 H-MK-801; set-up: species or system rat; settings: Table 4
# Protocol: PCP receptor binding assays against ^3 H-MK-801 were conducted as described by Keana et al., Proc. Natl. Acad. Sci (USA) 86: 5631-5635 (1989); Keana et al., Life Sciences 43: 965-973 (1988). For (+) ^3 H-MK-801 binding, 1 nM of radioligand was incubated with about 100 ug of thawed rat brain membrane protein for 4 hr at room temperature. The assays were carried out in 5 mM Tris/acetate and were stopped by rapid filtration through Whatman GF/B or Schleicher & Schuell no. 32 glass fiber filters (presoaked in 0.05% polyethylenamine).
# sigma-2 binding site [1] = target: T3, sigma-2 binding site (Cavia porcellus, UniProt H0V073); assay: biochemical; set-up: species or system guinea pig; settings: for IC50: Table 17, read-out: IC50 (nM) at sigma-2; for reduction in sigma-2 affinity vs. cmp. #1: Example 9
# T3 construct: Guinea pig whole membrane preparations (P2 microsomal fraction); from tissue; host or cells: guinea pig membranes (P2 microsomal fraction), as described by Weber et al; brain inferred from the sister test b489
# T3 sequence (H0V073 1-176): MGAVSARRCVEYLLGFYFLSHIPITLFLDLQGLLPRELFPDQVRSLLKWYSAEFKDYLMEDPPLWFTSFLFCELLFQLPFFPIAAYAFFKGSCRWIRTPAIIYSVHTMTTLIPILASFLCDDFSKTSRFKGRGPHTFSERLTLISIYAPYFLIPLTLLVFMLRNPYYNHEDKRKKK
# Protocol: (§1) For the standard equilibrium assay, the mixtures were incubated for 30 min. at room temperature, then filtered and the radioactivity determined as described above.
# Dopamine D1 receptor = target: T4, Dopamine D1 receptor (Rattus norvegicus, UniProt P18901); assay: Dopamine D1 receptor binding, [^3 H]SCH-23390, striatal membranes; settings: Table 4
# T4 construct: Rat striatal membranes were prepared from frozen tissue; from tissue; host or cells: rat striatum, frozen tissue
# Protocol: Dopamine D1 and D2 receptor binding assays were performed as described by Billard et al., Life Sci. 35: 1885-1893 (1984) using [^3 H]SCH-23390 for the D1 receptors and [^3 H]domperidone for the D2 receptors (Baudry et al., Arch. Pharmacol. 308: 231-237 (1979).
# Rat striatal membranes were prepared from frozen tissue by Poltron homogenization in 25 volumes of ice cold Tris-EDTA buffer (50 mM Tris-HCl, 1 mM EDTA, pH 7.4 at 4° C.). The homogenate was centrifuged at 48,000× g for 10 min. at 4° C., and the pellet was resuspended in 25 volumes of the same buffer. This suspension was then incubated at 37° C. for 15 min., followed by recentrifugation as before. The resulting pellet was resuspended in 267 volumes of assay buffer (50 mM Tris-HCl, 120 mM NaCl, 5 mM KCl, 2 mM CaCl2, 1 mM MgCl2, pH 7.4 at 37° C.).
# The binding assays were conducted with 100 uL of [^3 H]SCH-23390 or [^3 H]domperidone (to give about 1 nM final), 100 uL of buffer or drug solution, and 800 uL of membrane suspension (to give about 250 ug of striatal membrane protein per assay). The tubes were incubated at 37° C. for 60 min. The assays were stopped by rapid filtration over Schleicher & Schuell #32 or Whatman GF/B glass fiber filters (presoaked in 0.5% polyethyleneimine for [^3 H]domperidone binding), followed by two 3 mL washes of ice cold buffer using a Brandel cell harvester. After vigorous shaking, the filter disks were counted at 52% efficiency in 5 mL of Cytoscint (ICN).
# sigma receptor = assay: Sigma receptor binding, [^3 H]DTG, brain membranes (both sigma-1 and sigma-2 sites); set-up: species or system guinea pig; settings: Table 6; [^3 H]DTG
# sigma-2 binding site [2] = assay: biochemical; set-up: species or system guinea pig; settings: for sigma-1/sigma-2 ratio: Example 9; for ratio of sigma-1/sigma-2 (sigma-2 selective compounds): greater than about 10, see Table 10
# Protocol: as §1
# [3] = Table 10, read-out: SIGMA-1 KI vs. 3H-PENTAZOCINE MEAN
# [4] = less than about 0.1, see Table 10
# [5] = Table 10, read-out: SIGMA-2 KI vs. 3H-DTG + PENTAZOCINE MEAN
# [6] = Table 12, read-out: IC50 (nM) at sigma-1
# [7] = Table 13, read-out: Sigma-1 IC50
# T1 sequence (Q60492 whole entry): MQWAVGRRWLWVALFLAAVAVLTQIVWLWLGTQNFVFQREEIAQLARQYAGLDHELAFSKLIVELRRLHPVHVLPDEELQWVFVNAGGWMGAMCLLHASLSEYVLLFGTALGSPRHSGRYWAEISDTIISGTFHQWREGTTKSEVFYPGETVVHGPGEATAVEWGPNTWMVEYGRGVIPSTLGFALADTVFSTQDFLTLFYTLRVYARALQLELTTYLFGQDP
# T4 sequence (P18901 whole entry): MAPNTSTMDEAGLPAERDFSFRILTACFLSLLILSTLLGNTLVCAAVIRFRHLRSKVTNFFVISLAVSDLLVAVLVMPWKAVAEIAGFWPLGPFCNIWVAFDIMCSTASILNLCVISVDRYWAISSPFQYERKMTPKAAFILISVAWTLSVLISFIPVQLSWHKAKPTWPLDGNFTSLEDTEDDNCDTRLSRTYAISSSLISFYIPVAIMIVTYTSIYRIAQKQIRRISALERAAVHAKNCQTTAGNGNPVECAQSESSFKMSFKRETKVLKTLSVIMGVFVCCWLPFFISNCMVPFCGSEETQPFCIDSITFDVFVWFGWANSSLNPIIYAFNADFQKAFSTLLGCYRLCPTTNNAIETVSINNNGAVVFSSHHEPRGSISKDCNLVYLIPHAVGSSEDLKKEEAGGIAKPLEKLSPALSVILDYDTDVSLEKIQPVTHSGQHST
SMILES,Ki (sigma-1 binding site; [3]) [nM],"S1/S2 Ratio (sigma-1 binding site; Table 10, sigma-1/sigma-2)",Ratio 5-HT1A /σ (5-HT1A receptor; Table 5),"IC50 (5-HT1A receptor; Table 5, read-out: 5-HT1A IC50) [nM]",IC50 (PCP receptor) [nM],Ki (sigma-2 binding site [1]; [5]),Ratio 5-HT1A /σ (5-HT1A receptor),further results
"CC(Cc1ccccc1)NCCCCc1ccccc1 (racemic) [Compound 10, (±) N-(1-phenyl-2-propyl)-4-phenylbutylamine]",4.68,0.088,22,212,> 10000,53.2 nM,,"change in sigma-1 affinity vs. compound No. 1, words (sigma-1 binding site; Example 8): doubles affinity; IC50 (sigma-1 binding site; Table 14, read-out: IC50 (nM) at sigma-1): 4.7 nM; IC50 ratio of sigma-1/sigma-2 (sigma-1 selective compounds) (sigma-1 binding site; [4]): less than 0.1"
"CC(Cc1cccc(Br)c1)NCCCc1ccccc1 (racemic) [Compound 20, (±) N-[1-(3'-Bromophenyl)-2-propyl]-3-phenylpropylamine]",9.65,0.369,17,108,> 10000,26.1 nM,,IC50 (sigma-1 binding site; [6]): 9.6 nM; IC50 (sigma-2 binding site [1]): 26 nM
"CC(Cc1ccc(I)cc1)NCCCc1ccccc1 (racemic) [Compound 22, (±) N-[1-(4'-Iodophenyl)-2-propyl]-3-phenylpropylamine]",17.7,,,202,> 10000,76 nM,13,"IC50 (Dopamine D1 receptor): > 10000 nM; IC50 (sigma-1 binding site; [6]): 17.7 nM; S1/S2 Ratio (sigma-1 binding site; guinea pig, microsomes): 0.232; IC50 (sigma-2 binding site [1]): 76 nM"
"CC(Cc1cccc(C(F)(F)F)c1)NCCCc1ccccc1 (racemic) [Compound 23, (±) N-[1-(3'-Trifluoromethyl)-2-propyl]-3-phenylpropylamine]",8.75,0.420,25,106,> 10000,20.8 nM,,IC50 (sigma-1 binding site; [6]): 8.8 nM; IC50 (sigma-2 binding site [1]): 21 nM
"CCCC(N)Cc1ccccc1 (racemic) [Compound 34, (±) 1-Phenyl-2-aminopentane]",1180,0.115,2.6,6650,> 10000,10300 nM,,
"C[C@H](Cc1ccccc1)NCCCc1cccc2ccccc12 [Compound 11, R(-) N-(1-phenyl-2-propyl)-3-(1-naphthyl)propylamine]",,,11,104,> 10000,,,IC50 (sigma-1 binding site; [7]): 8.6 nM; reduction in sigma-2 affinity vs. cmp. #1 (sigma-2 binding site [1]): about 4 fold
"C[C@H](Cc1ccccc1)NCCCc1ccc2ccccc2c1 [Compound 12, R(-) N-(1-phenyl-2-propyl)-3-(2-naphthyl)propylamine]",5.73,0.022,56,132,> 10000,258 nM,,IC50 (sigma-1 binding site; [7]): 5.7 nM; IC50 ratio of sigma-1/sigma-2 (sigma-1 selective compounds) (sigma-1 binding site; [4]): less than 0.1; reduction in sigma-2 affinity vs. cmp. #1 (sigma-2 binding site [1]): about 4 fold
COc1ccc(CC(C)NCCCc2ccccc2)cc1 (centres unmarked) [Compound 19],,,,114,> 10000,,7.6,IC50 (Dopamine D1 receptor): > 10000 nM
"Clc1cccc(N2CCN(CCc3ccccc3)CC2)c1 [Compound 32, 1-(3'-Chlorophenyl)-4-(2-phenylethyl)piperazine]",14.9,0.352,.80,8.73,> 10000,42.4 nM,,
"OC1(c2ccccc2)CCN(CCCc2ccccc2)CC1 [Compound 40, 4-Hydroxy-4-phenyl-1-(3-phenylpropyl)piperidine]",0.68,,,2960,> 10000,9.2 nM and 7.03 nM,970,"IC50 (Dopamine D1 receptor): > 10000 nM; IC50 ratio of sigma-1/sigma-2 (sigma-1 selective compounds) (sigma-1 binding site): less than 0.1; S1/S2 Ratio (sigma-1 binding site; guinea pig, microsomes): 0.074 and 0.096"
"C[C@@H](Cc1ccccc1)NCCCCc1ccccc1 [Compound 44, N-(4-phenylbutyl)-1-phenyl-2-propylamine]",,,,,> 10000,,40,"Ki (sigma-1 binding site; SIGMA-1 KI vs. 3H-P[…]): 19.4 nM; S1/S2 Ratio (sigma-1 binding site; guinea pig, microsomes): .543; IC50 (5-HT1A receptor): 278 nM; Ki (sigma-2 binding site [1]; SIGMA-2 KI vs. 3H-DTG + P[…]): 35.8 nM"
"C[C@@H](Cc1ccccc1)NCCCCCc1ccccc1 [Compound 45, N-(5-phenylpentyl)-1-phenyl-2-propylamine]",,,,,> 10000,,100,"IC50 (sigma-1 binding site): 0.88 nM; change in sigma-1 affinity vs. compound No. 1, words (sigma-1 binding site): substantially increases affinity; Ki (sigma-1 binding site; SIGMA-1 KI vs. 3H-P[…]): 0.88 nM; S1/S2 Ratio (sigma-1 binding site; guinea pig, microsomes): .048; IC50 (5-HT1A receptor): 594 nM; Ki (sigma-2 binding site [1]; SIGMA-2 KI vs. 3H-DTG + P[…]): 18.5 nM"
c1ccc(CCCNC2CCc3ccccc3CC2)cc1 [Compound 49],,,,313,> 10000,,30,IC50 (Dopamine D1 receptor): > 10000 nM
"O=C1c2ccccc2C(=O)N1CCCN1CCN(c2ccccc2)CC1 [Compound 96, N-phenyl-N'-(3-(1-phthalimido)propyl)piperazine]",3100,,,,,149 nM,,IC50 (sigma receptor): 141 nM; sigma-1/sigma-2 ratio (sigma-2 binding site [2]): 87; ratio of sigma-1/sigma-2 (sigma-2 selective compounds) (sigma-2 binding site [2]): greater than 10
O=C1c2ccccc2C(=O)N1CCCCN1CCN(c2ccccc2)CC1 [Compound 97],195,9.587,,,,20.4 nM,,IC50 (sigma receptor): 20.3 nM; sigma-1/sigma-2 ratio (sigma-2 binding site [2]): 10; ratio of sigma-1/sigma-2 (sigma-2 selective compounds) (sigma-2 binding site [2]): greater than 10
